Laboratory results: the Deep4Chem optical property database

Assay: photoluminescence quantum yield (fraction); solvent given as SMILES

COc1ccc(-c2oc3cccc4c5c(-c6ccc(OC)cc6)/c(=N/S(=O)(=O)C(F)(F)F)oc6cccc(c2c34)c65)cc1
photoluminescence quantum yield (in ClC(Cl)Cl): 0.96

CC1=CC(C)=[N+]2C1=C(C1=C(C)C3=C(C)c4c(C)cc(C)n4[B-](F)(F)[N+]3=C1C)c1c(C)cc(C)n1[B-]2(F)F
photoluminescence quantum yield (in ClC(Cl)Cl): 0.03

CC1=[N+]2C(=Cc3cccn3[B-]2(F)F)C=C1
photoluminescence quantum yield (in CCCCCC): 0.96 | photoluminescence quantum yield (in CO): 1 | photoluminescence quantum yield (in ClCCl): 0.92

CCCCCCN1C(=O)c2cccc3c(-c4scc5c4OCCO5)ccc(c23)C1=O
photoluminescence quantum yield (in ClC(Cl)Cl): 0.61

c1ccc(N(c2ccccc2)c2ccc(-c3ccc4c(c3)C3(c5cc(-c6ccc(N(c7ccccc7)c7ccccc7)cc6)ccc5O4)c4ccccc4-c4ccccc43)cc2)cc1
photoluminescence quantum yield (in ClCCl): 0.47 | photoluminescence quantum yield (in c1cc(-n2c3ccccc3c3ccccc32)cc(-n2c3ccccc3c3ccccc32)c1): 0.45

c1ccc(-c2nc(-c3ccc(N4CCCC4)cc3)cc(-c3ccc4ccccc4c3)n2)cc1
photoluminescence quantum yield (in ClC(Cl)Cl): 0.19

COC(=O)C([NH3+])Cc1ccc2oc(-c3ccncc3)nc2c1 (configuration not stated)
photoluminescence quantum yield (in CC1CCCCC1): 0.01 | photoluminescence quantum yield (in CC#N): 0.05 | photoluminescence quantum yield (in CO): 0.18 | photoluminescence quantum yield (in O): 0.22

COc1ccc(-n2nc(C#N)c(N3CCOCC3)n2)cc1
photoluminescence quantum yield (in CC#N): 0.856

CCOC(=O)COc1ccc(/C=C/C2=[N+]3C(=Cc4c5ccccc5c(-c5[nH]c(C)cc5C)n4[B-]3(F)F)C(C)=C2)cc1
photoluminescence quantum yield (in ClCCl): 0.75

CCCCCCCCCCOc1cc(OCCCCCCCCCC)cc(C2=C3C(/C=C/c4ccc(N(C)C)cc4)=C(C#Cc4ccc(C(C)(C)C)cc4)C(/C=C/c4ccc(N(C)C)cc4)=[N+]3[B-](F)(F)n3c(/C=C/c4ccc(N(C)C)cc4)c(C#Cc4ccc(C(C)(C)C)cc4)c(/C=C/c4ccc(N(C)C)cc4)c32)c1
photoluminescence quantum yield (in ClC(Cl)Cl): 0.05

C(=C\c1c2ccccc2cc2ccccc12)/c1cnc2ccccc2c1
photoluminescence quantum yield (in CC1CCCCC1): 0.7 | photoluminescence quantum yield (in CC#N): 0.58

Nc1ccc2c(c1)C(=O)N(C13C[C@H]4C[C@@H](C1)C[C@@H](C3)C4)C2=O
photoluminescence quantum yield (in C1CCCCC1): 0.38 | photoluminescence quantum yield (in C1CCOC1): 0.59 | photoluminescence quantum yield (in CC#N): 0.62 | photoluminescence quantum yield (in CCOC(C)=O): 0.58 | photoluminescence quantum yield (in CO): 0.17 | photoluminescence quantum yield (in CS(C)=O): 0.8 | photoluminescence quantum yield (in Cc1ccccc1): 0.8 | photoluminescence quantum yield (in ClCCl): 0.85

O=C1c2ccccc2-c2c(-c3cc(Cl)ccc3O)[nH]c(=O)n21
photoluminescence quantum yield (in CC#N): 0.61 | photoluminescence quantum yield (in CO): 0.28 | photoluminescence quantum yield (in ClCCl): 0.78

c1cc2c3c(cccc3c1)NC(c1ccc3ccc4cccc5ccc1c3c45)N2
photoluminescence quantum yield (in CC#N): 0.24 | photoluminescence quantum yield (in CO): 0.05 | photoluminescence quantum yield (in CS(C)=O): 0.08 | photoluminescence quantum yield (in Cc1ccccc1): 0.51

CC[C@H](C)[C@H](Nc1c(C(C)=O)c(=O)oc2cc(N(C)C)ccc12)C(=O)O
photoluminescence quantum yield (in ClCCl): 0.0031

Fc1c(F)c(-n2c3ccccc3c3ccccc32)c(F)c(F)c1/C=C/c1ccc(C(=C(c2ccccc2)c2ccccc2)c2ccccc2)cc1
photoluminescence quantum yield (in Cc1ccccc1): 0.003

F[B-]1(F)OC(c2ccc(N3CCCC3)cc2)=Cc2cccc[n+]21
photoluminescence quantum yield (in ClC(Cl)Cl): 0.542

C[Si]1(C)c2cc(-c3cccs3)ccc2C=Cc2ccc(-c3cccs3)cc21
photoluminescence quantum yield (in ClCCl): 0.77

COc1ccc2[nH]cc(/C=C/C3=[NH+]c4cccc5cccc3c45)c2c1
photoluminescence quantum yield (in CO): 0.0486

c1csc(-c2ccc3c4ccc(-c5cccs5)cc4n(-c4cccs4)c3c2)c1
photoluminescence quantum yield (in ClCCl): 0.21

Cc1cn2cc(-c3ccccc3)[n-][n+]2c1
photoluminescence quantum yield (in ClCCl): 0.074

CC1=CC(c2ccc(N(C)C)cc2)=[N+]2C1=Nc1c(C)cc(-c3ccc(N(C)C)cc3)n1[B-]2(F)F
photoluminescence quantum yield (in C1CCOC1): 0.13 | photoluminescence quantum yield (in CS(C)=O): 0.01 | photoluminescence quantum yield (in Cc1ccccc1): 0.21

C(=C\c1ccc(N(c2ccc(/C=C/c3ccc(-c4cc(-c5ccccc5)nc(-c5ccccc5)c4)cc3)cc2)c2ccc(/C=C/c3ccc(-c4cc(-c5ccccc5)nc(-c5ccccc5)c4)cc3)cc2)cc1)/c1ccc(-c2cc(-c3ccccc3)nc(-c3ccccc3)c2)cc1
photoluminescence quantum yield (in C1CCOC1): 0.08 | photoluminescence quantum yield (in Cc1ccccc1): 0.14

CCCCCCCc1cc2c(o1)=CC1=C3c4cc5oc(CCCCCCC)cc5n4[B-](F)(F)[n+]4nnn(c43)[B-](F)(F)[N+]=21
photoluminescence quantum yield (in C1CCOC1): 0.34 | photoluminescence quantum yield (in ClCCl): 0.39

COc1c2ccccc2c(OC)c2c(C#CC(C)(C)C)c3cc4sccc4cc3c(C#CC(C)(C)C)c12
photoluminescence quantum yield (in C1CCOC1): 0.1 | photoluminescence quantum yield (in Cc1ccccc1): 0.14 | photoluminescence quantum yield (in ClCCl): 0.08

Cc1c(COC(=O)c2ccccc2Br)n2c(OCC(=O)c3ccccc3Br)c(C)c(=O)n2c1=O
photoluminescence quantum yield (in CCO): 0.841

CC(C)(C)c1ccc2c(c1)c1cc(C(C)(C)C)ccc1n2-c1ccc(S(=O)(=O)c2ccc(-n3c4ccc(C(C)(C)C)cc4c4cc(C(C)(C)C)ccc43)cc2)cc1
photoluminescence quantum yield (in Cc1ccccc1): 0.69

COC(=O)C[C@H](Cc1c[nH]c2ccccc12)NC(=O)[C@H](CC(=O)N[C@@H](CC1=CCc2ccccc21)C(=O)OC)NC(=O)OC(C)(C)C
photoluminescence quantum yield (in CC#N): 0.37 | photoluminescence quantum yield (in CCOC(C)=O): 0.22 | photoluminescence quantum yield (in CO): 0.06

O=C1CCCC2=C1C(c1ccccc1)c1c(c3ccccc3oc1=O)N2 (configuration not stated)
photoluminescence quantum yield (in CS(C)=O): 0.41

COc1ccc2cc(/C=C/c3ccccc3)c(=O)oc2c1
photoluminescence quantum yield (in CC#N): 0.71

Clc1ncc(-c2c3ccccc3c(-c3cnc(Cl)nc3)c3ccccc23)cn1
photoluminescence quantum yield (in CCO): 0.22 | photoluminescence quantum yield (in ClCCl): 0.78

COc1ccc2c(c1)SCC1=C(c3ccccc3)C3=Nc4c(-c5ccccc5)c5c(n4[B-](F)(F)[N+]3=C12)-c1ccc(OC)cc1SC5
photoluminescence quantum yield (in ClC(Cl)Cl): 0.11

O=S(=O)([O-])c1ccc(O)c2ccccc12
photoluminescence quantum yield (in C1COCCO1): 0.14 | photoluminescence quantum yield (in CC#N): 0.17 | photoluminescence quantum yield (in CC(C)O): 0.2 | photoluminescence quantum yield (in CCCCO): 0.2 | photoluminescence quantum yield (in CCO): 0.18 | photoluminescence quantum yield (in CCOC(C)=O): 0.14 | photoluminescence quantum yield (in CN(C)C=O): 0.14 | photoluminescence quantum yield (in CO): 0.16 | photoluminescence quantum yield (in CS(C)=O): 0.25

Cc1cc(C)c2c(c1)nc1c(=O)n(C)c(=O)nc-1n2C
photoluminescence quantum yield (in CC#N): 0.18

COc1ccc([Si](C)(C)C)c2ccccc12
photoluminescence quantum yield (in C1CCCCC1): 0.65

COC(=O)C12N=N[C@](C(=O)OC)(C3C4CCC(C4)C31)[C@@]1(C)C[C@@H]21 (some centres not stated)
photoluminescence quantum yield (in CC#N): 0.043

CCCCCCOc1ccc(C#Cc2ccc(C#CC#Cc3ccc(C#Cc4ccc(OCCCCCC)c(OCCCCCC)c4)c4nsnc34)c3nsnc23)cc1OCCCCCC
photoluminescence quantum yield (in CN(C)C=O): 0.006 | photoluminescence quantum yield (in COc1ccccc1): 0.43 | photoluminescence quantum yield (in Cc1ccccc1): 0.58 | photoluminescence quantum yield (in ClC(Cl)Cl): 0.49 | photoluminescence quantum yield (in ClCCCl): 0.27 | photoluminescence quantum yield (in ClCCl): 0.36

CC(C)[Si](C#Cc1c2ccccc2c(C#C[Si](C(C)C)(C(C)C)C(C)C)c2nc3c(nc12)C1c2ccccc2C3c2ccccc21)(C(C)C)C(C)C
photoluminescence quantum yield (in CCCCCC): 0.7

CC(C)(C)NC(=O)c1ccc(C(=O)NC(C)(C)C)c2c1c1c3ccc(Cl)cc3c3cc(Cl)ccc3c1c1c3ccc(Cl)cc3c3cc(Cl)ccc3c21
photoluminescence quantum yield (in ClCCl): 0.07

CNC1=C2C=CC=[N+]2[B-](F)(F)n2cccc21
photoluminescence quantum yield (in C1CCCCC1): 0.7 | photoluminescence quantum yield (in CC(C)=O): 0.16 | photoluminescence quantum yield (in CCO): 0.16 | photoluminescence quantum yield (in CCOC(C)=O): 0.42 | photoluminescence quantum yield (in CO): 0.1 | photoluminescence quantum yield (in OCC(F)(F)F): 0.23

O=c1oc2ccc(Br)cc2cc1-c1cc2cc(Br)ccc2o1
photoluminescence quantum yield (in CS(C)=O): 0.2

COC(=O)[C@@]12N=N[C@@H](C3C[C@H]31)[C@@H]1C[C@@H]12 (some centres not stated)
photoluminescence quantum yield (in CC#N): 0.0066

Cc1nnc(-c2cc(-n3c4ccccc4c4ccccc43)c(-n3c4ccccc4c4ccccc43)cc2-c2nnc(C)o2)o1
photoluminescence quantum yield (in Cc1ccccc1): 0.287

C(=C\c1cccnc1)/c1ccc(Nc2ccccc2)cc1
photoluminescence quantum yield (in CC#N): 0.25 | photoluminescence quantum yield (in CCCCCC): 0.37

CCCC1(CCC)c2cc(-c3ccc(OC)cc3)ccc2-c2ccc(-c3ccc4c(c3)C(CCC)(CCC)c3cc(-c5ccc(OC)cc5)ccc3-4)cc21
photoluminescence quantum yield (in C1CCCCC1): 1

CCn1c2ccccc2c2cc(-c3cc(-c4ccc5c(c4)c4ccccc4n5CC)nc(N4CCCCC4)n3)ccc21
photoluminescence quantum yield (in C1CCOC1): 0.15 | photoluminescence quantum yield (in CCOC(C)=O): 0.14 | photoluminescence quantum yield (in CN(C)C=O): 0.17 | photoluminescence quantum yield (in Cc1ccccc1): 0.16 | photoluminescence quantum yield (in ClCCl): 0.15

C(#Cc1ccc2ncsc2c1)c1ccc(N(c2ccc(C#Cc3ccc4ncsc4c3)cc2)c2ccc(C#Cc3ccc4ncsc4c3)cc2)cc1
photoluminescence quantum yield (in Cc1ccccc1): 0.53

CNC(=O)[C@H](C)NC(=O)c1cccc2c1C#Cc1c(N)cccc1OCCCO2
photoluminescence quantum yield (in CC#N): 0.25 | photoluminescence quantum yield (in ClCCl): 0.44

c1cc2ccc1CCCc1cc3c(cc1CCCc1ccc(c4nsnc14)CCC3)CCC2
photoluminescence quantum yield (in C1CCCCC1): 0.12 | photoluminescence quantum yield (in CC#N): 0.02 | photoluminescence quantum yield (in ClC(Cl)Cl): 0.08

CCCN1/C(=C/C=C(/C=C/c2sc3ccccc3[n+]2CCC)c2ccc([N+](=O)[O-])cc2)Sc2ccccc21
photoluminescence quantum yield (in CO): 0.05 | photoluminescence quantum yield (in CS(C)=O): 0.02 | photoluminescence quantum yield (in O): 0.02

CC1(C)C(/C=C/C2=C(Oc3ccc(CCN=C=S)cc3Br)C(=C/C=C3/N(CCCS(=O)(=O)[O-])c4ccccc4C3(C)C)/CCC2)=[N+](CCCS(=O)(=O)[O-])c2ccccc21
photoluminescence quantum yield (in CO): 0.14
